These are literature values, as cited in US20250288673A1, “GENE THERAPY FOR THE TREATMENT OF ACTIVATED PI3KINASE DELTA SYNDROME TYPE 1 (APDS1)” (Cellectis SA, priority 2022, published 2025).

The conditions of data set [1]: after administration; cited from earlier work.
The next data set relates to PI3Kδ. Particulars: APDS1 treatment; cited from earlier work.

In the case of `CO[C@H]1C[C@@H]2CC[C@@H](C)[C@@](O)(O2)C(=O)C(=O)N2CCCC[C@H]2C(=O)O[C@H]([C@H](C)C[C@@H]2CC[C@@H](O)[C@H](OC)C2)CC(=O)[C@H](C)/C=C(\C)[C@@H](O)[C@@H](OC)C(=O)[C@H](C)C[C@H](C)/C=C/C=C/C=C/1C` [Rapamycin], the “side effects outside of the immune system” value in data set [1] is “proteinuria was observed”.
Take `[O-][n+]1cccc(-c2nc3c(Cl)cccc3cc2[C@@H](Nc2ncnc3cccnc23)C(F)(F)F)c1` [Seletalisib]: the “side effects outside of the immune system” value in data set [1] is listed as “liver toxicity”. The “effect on lymphadenopathy and immune B cell subpopulations” value in the data set on PI3Kδ was “reduction in lymphadenopathy and normalization of immune B cell subpopulations”.
